Assay [1] deals with T1, Non-receptor tyrosine-protein kinase TNK1 (Homo sapiens, UniProt Q13470).
T1 sequence (Q13470 whole entry): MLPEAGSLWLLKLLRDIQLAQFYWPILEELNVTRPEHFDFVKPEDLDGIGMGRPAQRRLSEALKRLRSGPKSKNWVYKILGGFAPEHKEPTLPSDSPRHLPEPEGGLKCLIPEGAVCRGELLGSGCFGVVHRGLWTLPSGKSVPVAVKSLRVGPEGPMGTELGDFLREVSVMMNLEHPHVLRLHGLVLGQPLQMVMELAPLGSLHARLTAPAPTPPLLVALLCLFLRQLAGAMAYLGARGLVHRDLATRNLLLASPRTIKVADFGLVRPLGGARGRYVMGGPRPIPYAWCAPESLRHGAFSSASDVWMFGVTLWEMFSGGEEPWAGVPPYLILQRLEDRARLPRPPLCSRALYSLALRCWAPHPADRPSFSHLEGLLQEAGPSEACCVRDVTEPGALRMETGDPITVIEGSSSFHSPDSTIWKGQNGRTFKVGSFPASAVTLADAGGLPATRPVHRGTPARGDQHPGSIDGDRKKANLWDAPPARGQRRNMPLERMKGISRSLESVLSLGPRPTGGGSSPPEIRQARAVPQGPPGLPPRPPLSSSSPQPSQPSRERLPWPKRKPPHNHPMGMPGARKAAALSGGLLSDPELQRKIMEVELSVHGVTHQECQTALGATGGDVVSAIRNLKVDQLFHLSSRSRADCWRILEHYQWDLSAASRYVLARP

Assay [2] concerns the target MAP/microtubule affinity-regulating kinase 3 (Homo sapiens, UniProt P27448).
Assay [3] deals with T2, Membrane-associated tyrosine- and threonine-specific cdc2-inhibitory kinase (Homo sapiens, UniProt Q99640).
T2 sequence (Q99640 whole entry): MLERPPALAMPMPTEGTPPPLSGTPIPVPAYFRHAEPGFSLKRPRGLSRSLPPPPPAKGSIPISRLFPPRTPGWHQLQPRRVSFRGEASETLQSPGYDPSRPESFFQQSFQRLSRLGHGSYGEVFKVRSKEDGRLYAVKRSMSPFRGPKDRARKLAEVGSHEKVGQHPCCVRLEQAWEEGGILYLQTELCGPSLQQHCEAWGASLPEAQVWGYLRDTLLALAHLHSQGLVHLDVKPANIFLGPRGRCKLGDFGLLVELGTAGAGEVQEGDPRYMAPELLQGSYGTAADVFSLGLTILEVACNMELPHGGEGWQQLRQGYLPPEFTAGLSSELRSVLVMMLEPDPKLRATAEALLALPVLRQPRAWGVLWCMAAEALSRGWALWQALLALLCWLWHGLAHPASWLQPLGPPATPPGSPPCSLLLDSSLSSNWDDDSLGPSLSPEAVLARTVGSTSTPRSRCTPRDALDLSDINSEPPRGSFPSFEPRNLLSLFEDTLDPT

Assay [4] concerns the target T3, Structural maintenance of chromosomes protein 1A (Homo sapiens, UniProt Q14683).
T3 sequence (Q14683 whole entry): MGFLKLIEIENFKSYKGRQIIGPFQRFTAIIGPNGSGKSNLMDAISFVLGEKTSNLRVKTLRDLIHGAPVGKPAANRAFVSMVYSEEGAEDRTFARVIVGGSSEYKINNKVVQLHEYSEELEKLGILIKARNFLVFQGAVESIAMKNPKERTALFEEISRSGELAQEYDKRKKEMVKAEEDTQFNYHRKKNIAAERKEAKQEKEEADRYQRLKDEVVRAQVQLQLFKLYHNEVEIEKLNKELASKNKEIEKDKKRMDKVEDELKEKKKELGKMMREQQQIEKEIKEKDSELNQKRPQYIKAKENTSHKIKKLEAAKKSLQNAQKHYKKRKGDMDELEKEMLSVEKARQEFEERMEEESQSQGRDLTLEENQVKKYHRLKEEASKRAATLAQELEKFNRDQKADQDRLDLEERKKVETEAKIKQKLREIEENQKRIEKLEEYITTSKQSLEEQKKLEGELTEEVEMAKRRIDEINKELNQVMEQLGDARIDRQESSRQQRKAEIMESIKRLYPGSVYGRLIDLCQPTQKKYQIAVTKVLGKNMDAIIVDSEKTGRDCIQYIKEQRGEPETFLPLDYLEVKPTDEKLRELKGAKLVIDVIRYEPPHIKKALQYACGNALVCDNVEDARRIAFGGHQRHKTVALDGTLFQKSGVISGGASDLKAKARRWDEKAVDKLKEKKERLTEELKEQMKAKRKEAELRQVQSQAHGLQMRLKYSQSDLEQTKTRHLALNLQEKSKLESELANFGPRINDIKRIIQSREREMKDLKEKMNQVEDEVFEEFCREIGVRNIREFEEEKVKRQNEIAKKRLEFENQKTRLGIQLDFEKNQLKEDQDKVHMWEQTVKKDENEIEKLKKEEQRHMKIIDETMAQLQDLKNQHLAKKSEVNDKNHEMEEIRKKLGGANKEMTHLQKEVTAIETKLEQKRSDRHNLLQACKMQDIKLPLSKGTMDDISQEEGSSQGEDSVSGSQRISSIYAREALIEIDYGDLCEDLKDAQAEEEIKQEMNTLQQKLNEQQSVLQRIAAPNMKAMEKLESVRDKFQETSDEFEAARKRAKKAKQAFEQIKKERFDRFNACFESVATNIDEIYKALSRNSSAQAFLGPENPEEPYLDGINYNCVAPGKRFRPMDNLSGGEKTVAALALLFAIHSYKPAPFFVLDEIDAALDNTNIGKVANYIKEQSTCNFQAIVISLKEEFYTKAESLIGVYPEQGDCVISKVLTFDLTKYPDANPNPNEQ

Assay [5] concerns the target T4, Serine/threonine-protein kinase ULK3 (Homo sapiens, UniProt Q6PHR2).
T4 sequence (Q6PHR2 whole entry): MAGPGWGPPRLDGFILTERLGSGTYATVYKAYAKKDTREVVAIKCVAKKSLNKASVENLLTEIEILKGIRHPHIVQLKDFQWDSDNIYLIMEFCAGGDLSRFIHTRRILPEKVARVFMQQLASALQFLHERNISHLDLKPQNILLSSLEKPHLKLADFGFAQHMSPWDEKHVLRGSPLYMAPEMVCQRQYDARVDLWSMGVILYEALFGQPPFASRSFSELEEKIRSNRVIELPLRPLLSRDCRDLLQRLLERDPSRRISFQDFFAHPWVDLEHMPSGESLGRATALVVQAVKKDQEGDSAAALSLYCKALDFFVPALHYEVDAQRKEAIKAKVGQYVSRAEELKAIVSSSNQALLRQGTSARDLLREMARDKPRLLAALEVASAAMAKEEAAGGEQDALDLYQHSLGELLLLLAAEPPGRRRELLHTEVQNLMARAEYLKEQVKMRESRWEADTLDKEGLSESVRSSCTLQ

In assay [6] the target is TRAF2 and NCK-interacting protein kinase (Homo sapiens, UniProt Q9UKE5).

Calls of active or inactive are those of the source. For most assays here, no stated cut-off is given here; in the data, actives have a measured Kd and inactives only a lower limit.

Sequence of TRAF2 and NCK-interacting protein kinase (Q9UKE5 whole entry): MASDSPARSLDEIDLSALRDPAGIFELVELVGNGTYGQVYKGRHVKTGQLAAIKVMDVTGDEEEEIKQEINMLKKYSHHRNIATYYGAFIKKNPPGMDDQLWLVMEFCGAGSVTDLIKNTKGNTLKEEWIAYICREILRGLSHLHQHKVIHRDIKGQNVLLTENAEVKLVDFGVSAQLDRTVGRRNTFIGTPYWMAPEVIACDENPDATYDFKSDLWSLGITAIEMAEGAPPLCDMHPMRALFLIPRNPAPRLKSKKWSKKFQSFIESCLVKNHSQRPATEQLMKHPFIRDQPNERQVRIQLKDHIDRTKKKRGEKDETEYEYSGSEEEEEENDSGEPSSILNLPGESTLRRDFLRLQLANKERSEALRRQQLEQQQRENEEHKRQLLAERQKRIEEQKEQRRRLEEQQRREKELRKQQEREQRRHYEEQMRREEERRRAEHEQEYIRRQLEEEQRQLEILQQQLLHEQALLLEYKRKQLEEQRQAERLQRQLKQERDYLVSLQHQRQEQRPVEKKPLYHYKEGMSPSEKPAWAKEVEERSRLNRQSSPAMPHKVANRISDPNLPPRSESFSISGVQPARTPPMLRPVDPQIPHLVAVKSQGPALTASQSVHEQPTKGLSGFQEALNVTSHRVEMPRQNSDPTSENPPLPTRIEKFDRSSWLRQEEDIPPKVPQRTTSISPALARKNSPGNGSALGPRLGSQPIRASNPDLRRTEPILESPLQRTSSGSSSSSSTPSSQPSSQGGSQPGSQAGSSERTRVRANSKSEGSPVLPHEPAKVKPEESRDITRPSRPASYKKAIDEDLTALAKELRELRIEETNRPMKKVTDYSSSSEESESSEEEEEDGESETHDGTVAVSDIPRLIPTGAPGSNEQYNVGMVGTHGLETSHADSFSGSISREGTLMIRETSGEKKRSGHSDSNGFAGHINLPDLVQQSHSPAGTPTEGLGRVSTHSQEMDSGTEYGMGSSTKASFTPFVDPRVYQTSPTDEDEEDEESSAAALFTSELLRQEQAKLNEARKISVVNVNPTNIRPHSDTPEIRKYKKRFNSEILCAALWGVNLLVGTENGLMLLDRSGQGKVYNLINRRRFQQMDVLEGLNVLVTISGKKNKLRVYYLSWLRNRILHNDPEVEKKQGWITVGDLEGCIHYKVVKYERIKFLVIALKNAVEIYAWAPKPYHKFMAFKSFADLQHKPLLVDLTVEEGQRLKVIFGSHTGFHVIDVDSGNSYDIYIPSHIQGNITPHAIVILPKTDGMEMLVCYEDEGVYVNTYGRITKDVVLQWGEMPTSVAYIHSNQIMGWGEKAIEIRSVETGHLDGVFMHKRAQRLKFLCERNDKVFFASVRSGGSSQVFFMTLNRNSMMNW
Sequence of MAP/microtubule affinity-regulating kinase 3 (P27448 whole entry): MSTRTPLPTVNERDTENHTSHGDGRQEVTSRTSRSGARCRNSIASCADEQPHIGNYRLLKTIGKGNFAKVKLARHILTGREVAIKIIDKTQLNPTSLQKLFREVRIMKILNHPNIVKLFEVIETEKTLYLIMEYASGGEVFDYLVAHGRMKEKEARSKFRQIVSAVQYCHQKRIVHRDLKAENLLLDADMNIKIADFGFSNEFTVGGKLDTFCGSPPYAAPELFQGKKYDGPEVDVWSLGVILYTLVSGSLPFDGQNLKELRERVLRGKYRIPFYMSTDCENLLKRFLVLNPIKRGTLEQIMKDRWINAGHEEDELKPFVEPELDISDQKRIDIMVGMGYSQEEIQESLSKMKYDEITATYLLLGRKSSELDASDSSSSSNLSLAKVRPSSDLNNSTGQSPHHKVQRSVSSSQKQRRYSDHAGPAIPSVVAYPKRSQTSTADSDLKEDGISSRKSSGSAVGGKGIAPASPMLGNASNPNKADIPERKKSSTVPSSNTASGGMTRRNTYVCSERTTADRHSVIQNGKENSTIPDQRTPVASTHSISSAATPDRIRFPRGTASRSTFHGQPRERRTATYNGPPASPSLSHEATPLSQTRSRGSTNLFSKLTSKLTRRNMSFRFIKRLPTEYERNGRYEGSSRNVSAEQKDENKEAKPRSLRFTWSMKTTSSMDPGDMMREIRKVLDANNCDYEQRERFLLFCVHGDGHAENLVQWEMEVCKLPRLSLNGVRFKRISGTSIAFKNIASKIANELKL

Take `O=C(NC[C@H](O)CO)c1ccncc1Nc1ccc(I)cc1F` [PIMASERTIB]: the Kd in assay [1], in assay [2], in assay [3], in assay [4], in assay [5] and in assay [6] was > 30 µM (inactive) each time.
For the compound `CCc1cc2c(cc1N1CCC(N3CCOCC3)CC1)C(C)(C)c1[nH]c3cc(C#N)ccc3c1C2=O` [ALECTINIB], the Kd in assay [1], in assay [2], in assay [3], in assay [4], in assay [5] and in assay [6] was > 30 µM (inactive) in each case.
In the case of `COc1cc(Nc2ncc(F)c(Nc3ccc4c(n3)N(COP(=O)(O)O)C(=O)C(C)(C)O4)n2)cc(OC)c1OC` [FOSTAMATINIB], the dissociation constant (Kd) is 0.16 µM (active) in assay [1]; > 30 µM (inactive) in assay [2]; > 30 µM (inactive) in assay [3]; > 30 µM (inactive) in assay [4]; > 30 µM (inactive) in assay [5]; > 30 µM (inactive) in assay [6].
Turning to `CN1CCN(c2nc(C3=C(c4c[nH]c5ccccc45)C(=O)NC3=O)c3ccccc3n2)CC1` [SOTRASTAURIN], the Kd in assay [1] is > 30 µM (inactive); in assay [2], > 30 µM (inactive); in assay [3], > 30 µM (inactive); in assay [4], > 30 µM (inactive); in assay [5] it was > 30 µM (inactive); in assay [6], 0.038 µM.
As for `COc1cccc2cc(-c3nc([C@H]4CC[C@H](C(=O)O)CC4)n4ncnc(N)c34)[nH]c12` [OSI-027], the Kd in assay [1], in assay [2], in assay [3], in assay [4], in assay [5] and in assay [6] was > 30 µM (inactive) each time.
Take `COc1ccc2c(OCc3nnc4ccc(-c5ccccc5)nn34)ccnc2c1` [AMG-208]: the Kd in assay [1], in assay [2], in assay [3], in assay [4], in assay [5] and in assay [6] was > 30 µM (inactive) in each case.
In the case of `CC[C@@](C)(Nc1ccnc(-c2c[nH]c3ncccc23)n1)C(=O)NCC(F)(F)F` [DECERNOTINIB], the equilibrium dissociation constant (Kd) in assay [1] was 0.046 µM; in assay [2], 0.562 µM (active); in assay [3] it was > 30 µM (inactive); in assay [4] it was > 30 µM (inactive); in assay [5] it was > 30 µM (inactive); in assay [6] it was > 30 µM (inactive).
Turning to `O=C(NOC[C@H](O)CO)c1ccc(F)c(F)c1Nc1ccc(I)cc1F` [MIRDAMETINIB], the Kd in assay [1], in assay [2], in assay [3], in assay [4], in assay [5] and in assay [6] was > 30 µM (inactive) in each case.
Regarding `COc1cc2nccc(Oc3ccc(NC(=O)C4(C(=O)Nc5ccc(F)cc5)CC4)cc3)c2cc1OC` [CABOZANTINIB], the Kd in assay [1], in assay [2], in assay [3], in assay [4], in assay [5] and in assay [6] was > 30 µM (inactive) in each case.
`NC[C@@](O)(c1ccc(Cl)cc1)c1ccc(-c2cn[nH]c2)cc1` [AT-13148]: the Kd in assay [1], in assay [2], in assay [3], in assay [4], in assay [5] and in assay [6] was > 30 µM (inactive) each time.

These data come from ChEMBL document CHEMBL3991601, “The target landscape of clinical kinase drugs” (Science, 2017).
